According to patent USRE44543E1, “Naphthalenic compounds as termite bait toxicants” (priority 2002, dated 2013):

Columns and labels:
termites [1] = details: Grace et al. 1993; cited from earlier work
termites [2] = assay: Copper naphthenate laboratory study, ARS bait matrix in foraging boxes; format: in vivo, Coptotermes formosanus
Method: (§1) For bait matrices with a final concentrations of NHA sodium salt of either 250 ppm or 500 ppm, the following procedure was used. A total of 25 mg or 50 mg, respectively of the NHA sodium salt was weighed using a Mettler balance. The NHA sodium salt complex was placed into a 50 ml sterile screw cap conical tube (#62.547.004; Sarstedt, Newton, N.C.) and dissolved with 40 ml nutritive solution described in Example 2 of U.S. patent application Ser. No. 09/294,499 filed Apr. 20, 1999, hereby incorporated by reference. Under a laminar flow hood, this product was mixed with 27 ml more of sterile nutritional supplement in a 250 ml sterile glass bottle (prepared as reported by M. G. Rojas and J. A. Morales-Ramos, April 2001, “Bait matrix for delivery of chitin synthesis inhibitors to the Formosan subterranean termite [Isoptera: Rhinotermitidae],” J. Econ. Entomol. 94(2) :506-510) hereby incorporated by reference. The bottle was tightly closed with a screw cap and manually shaken for 2 minutes. The mixture was added to 33 g of sterile cellulose as reported by Rojas and Morales-Ramos (2001) supra. The mixture was manually homogenized using a stainless steel spatula. To encase the bait matrix, tubes made of fibrous casing material (#124B; L.E.M. Products, Inc., Miamitown, Ohio) were cut into 150 mm long portions as reported by Rojas and Morales-Ramos (2001) supra. Fifty grams of bait matrix containing NHA sodium salt was compacted into one end of the inlet tube, and the open end and of the inlet tube was closed with a rubber band. The bait casing was placed inside of the foraging box adjacent to a 10 g piece of pine wood, taking care that it was partially covered with sand. Control bait matrix was prepared minus NHA, and presented in the same way as the treatment matrix to Formosan termites taken from three different colonies, with two boxes per locality totaling six boxes of 2500 termites per treatment. (Rojas and Morales-Ramos [2001] supra). All the experimental boxes were maintained under dark conditions at 27±1° C., and 90±2% relative humidity. Observations were done every 72 hours until all the termites died. The time to reach 100% mortality was measured and recorded. Mean comparisons among treatments and control were conducted.
Copper naphthenate (Product No. PS-2028, Chem Service, West Chester, Pa.) was dissolved in 90% warm ethanol at 3 different concentrations of 50, 100 and 200 ppm. The ethanol solution was mixed with the liquid part of the ARS bait matrix (see Example 2) and bait was prepared and presented to the termites as above in Example 1 having 4 repetitions per dose and a control. It was observed that at 50 ppm of chemical, all termites in 50% of the boxes died at about 8 weeks; and termites in 75% of the boxes died at about 10 weeks; at 100 ppm all termites died in the boxes at 8 weeks, and at 200 ppm all termites died in all tested boxes at 8 weeks. All termites in the treatments were dead by week 12.

C. formosanus [3] = details: low toxicity baits; cited from earlier work
Reticulitermes spp. = details: low toxicity baits; cited from earlier work
C. formosanus [4] = assay: ARS bait matrix bioassay with NHA sodium salt, protocol of Example 1 (Example 2); format: in vivo, Coptotermes formosanus
Method: as §1
N-hydroxynaphthyalimide (NHA) which is commercially available as pure chemical, is dissolved in distilled water using a sterile container; At concentrations of 500 ppm, NHA is effective as bait active ingredient taking a mean time to kill C. formosanus in 2½ months in lab conditions. […]

Formosan termites = assay: Foraging box bait matrix bioassay, NHA sodium salt (Example 1); format: in vivo, Coptotermes formosanus; details: 6 boxes of 2500 termite workers
Method: as §1

For Copper naphthenate, the repellence to termites (termites [1]) is listed as “highly repellent”, the toxicity to termites (termites [1]) is listed as “toxic” and the “week by which all termites in the treatments were dead” value (termites [2]; 50, 100 and 200 ppm) is listed as ≤ 12 week. For the same molecule, the “Percent colonies of 2500 termite workers alive” value (from here on “Percent colonies”) (termites [2]; 50 ppm, 8 wks after treatment) was 50%, the “Percent colonies” value (termites [2]; 50 ppm, 10 wks after treatment) was 25% and the “Percent colonies” value (termites [2]; 50 ppm, 12 wks after treatment) was 0%. The “boxes in which all termites died” value (termites [2]; 50 ppm, at about 8 weeks) was 50%, the “boxes in which all termites died” value (termites [2]; 50 ppm, at about 10 weeks) was 75% and the “time at which all termites died in the boxes” value (termites [2]; 100 ppm) was 8 weeks. For the same molecule, the “Percent colonies” value (termites [2]; 100 ppm, 8 wks after treatment) was 0%, the “Percent colonies” value (termites [2]; 100 ppm, 10 wks after treatment) was 0% and the “Percent colonies” value (termites [2]; 100 ppm, 12 wks after treatment) was 0%. The “time at which all termites died in all tested boxes” value (termites [2]; 200 ppm) was 8 weeks, the “acceptance of the bait and time to kill” value (termites [2]; 200 ppm dose) was “great variability” and the “Percent colonies” value (termites [2]; 200 ppm, 8 wks after treatment) was 0%. For the same molecule, the “Percent colonies” value (termites [2]; 200 ppm, 10 wks after treatment) was 0% and the “Percent colonies” value (termites [2]; 200 ppm, 12 wks after treatment) was 0%.
For `O=C(NC(=O)c1c(F)cccc1F)Nc1cc(Cl)c(OC(F)(F)C(F)F)c(Cl)c1` [hexaflumuron], the suppressing colonies (C. formosanus [3]) is given as “particularly effective” and the suppressing colonies (Reticulitermes spp.) is given as “particularly effective”.
In the case of `O=C1c2cccc3cccc(c23)C(=O)N1[O-].[Na+]` [NHA-sodium salt, N-hydroxynaphthyalimide Sodium Salt], the “repellence to the termites” value (C. formosanus [4]; 500 ppm) is reported as “without any signs of repellence”, the “time to formosan termite mortality” value (C. formosanus [4]; 500 ppm, preliminary results, dose range 50, 250, 500 ppm) is reported as “within about two months” and the “dose at which repellence was observed” value (C. formosanus [4]; in vivo) is reported as “higher than 1500 ppm”. For the same molecule, the “Colonies Alive” value (Formosan termites; 250 ppm in bait matrix, 1 Month of feeding) was 4, the “Colonies Alive” value (Formosan termites; 250 ppm in bait matrix, 2 Months of feeding) was 3 and the “Colonies Alive” value (Formosan termites; 250 ppm in bait matrix, 2½ Months of feeding) was 0. The “Colonies Alive” value (Formosan termites; 500 ppm in bait matrix, 1 Month of feeding) was 3, the “Colonies Alive” value (Formosan termites; 500 ppm in bait matrix, 2 Months of feeding) was 1 and the “Colonies Alive” value (Formosan termites; 500 ppm in bait matrix, 2½ Months of feeding) was 0.
For `O=C(NC(=O)c1c(F)cccc1F)Nc1ccc(Cl)cc1` [diflubenzuron], the suppressing colonies (C. formosanus [3]) is listed as “particularly effective” and the suppressing colonies (Reticulitermes spp.) is listed as “particularly effective”.
